# From EP1311531B1, “STEROID DERIVED ANTIBIOTICS” (Brigham Young University, priority 2000, dated 2002)
# System: Gram-negative bacteria
# Experiment: MIC and permeabilization measurements, strain not stated (Table 14, Fig. 5)
# Conditions: in words
structure (smiles),measurement,value
C[C@H](CCCO)[C@H]1CC[C@H]2[C@@H]3[C@H](N)C[C@@H]4C[C@H](N)CC[C@]4(C)[C@H]3C[C@H](N)[C@]12C [Compound 206],activity as a permeabilizer,ineffective as a permeabilizer
